From patent publication US20060211671A1, “Estrogen receptors” (priority 2001, published 2006)
“Also recorded” adds a separate entry of the source.

Columns and labels:
[1] = test system: ovariectomized (ovx) mice; experiment: Effects of estrogen exposure on gonadal fat in ovariectomized WT, ERKO, BERKO and DERKO mice; format: in vivo; conditions: for gonadal fat mass, WT mice: ovx WT mice
Text: Male double heterozygous (ERα^+/−β^+/−) mice were mated with female double heterozygous (ERα^+/−β^+/−) mice, resulting in ERα^+/+β^+/+ wildtype (WT); ERα^−/−β^+/+=ERKO, ERα^+/+β^−/−=BERKO and ERα^−/−β^−/−=DERKO offsprings (Vidal O et al (2000) Proc Natl Sci USA, 97, 5474). The diet, housing and genetic background was as previously described in Vidal O et al (2000) supra. In the estrogen exposure experiments all mice were ovariectomized. Ovaries were removed after a flank incision and the incisions were closed with metallic clips. Mice were left to recover for four days after ovariectomy before start of experiments. After recovery mice were injected s.c with 2.3 μg/mouse/day of 17β-estradiol benzoate (Sigma, St Louis, Mo., USA) for 5 days/week during three weeks time. Control mice received injections of vehicle oil (olive oil, Apoteksbolaget, Göteborg, Sweden).
Ovariectomized (ovx) mice, lacking one or both of the two known ERs, were given estrogen and the effects on gonadal fat was studied. The effects of estrogen in mice with both ERα and ERβ inactivated (DERKO) were compared with the effects of estrogen in wild type (WT) mice.
In Table 2, the left part describes the effects of estrogen on fat in ovx wild type (WT) and DERKO mice. Three months old ovx mice were treated for three weeks with 2.3 μg/mouse/day of 17β-estradiol 5 days/week or olive oil as control (=vehicle). n=7 for WT vehicle, n=7 for WT estrogen, n=7 for DERKO vehicle, n=8 for DERKO estrogen. Values are given as means±SEM and expressed as % increase over vehicle treated animal. **=p<0.01 compared with vehicle treated mice. ++=p<0.01 effect of estrogen in DERKO compared with the effect of estrogen in WT, Student t-test. The right part of Table 2 describes the calculation of estrogen receptor α/β dependent and independent effects of estrogen. The effects of estrogen in WT and DERKO mice, as described in the left part of the table, were used for the calculation of the proportion of ERα/β dependent and independent effects of estrogen. The values are given as % of the total effect seen in WT mice.

orx male rats = conditions: cited from earlier work
[2] = calculated from effects in WT and DERKO mice, % of the total effect seen in WT mice

| Compound | ERα/β Dependent effect of estrogen on Fat Weight [1, 2] [%] | ERα/β Independent effect of estrogen on Fat Weight [1, 2] [%] | gonadal fat mass, BERKO mice ([1]; ovx BERKO mice, estrogen treatment, result in words (FIG. 6)) | gonadal fat mass, DERKO mice ([1]; ovx DERKO mice, estrogen treatment, result in words (FIG. 6)) | Effect of Estrogen (%) on Fat Weight, DERKO ([1]; ovx DERKO mice, three months old, 2.3 μg/mouse/day s.c. 5 days/week for three weeks, mean±SEM, % increase over vehicle treated animal) | gonadal fat mass, WT mice ([1]; estrogen treatment, result in words (FIG. 6)) | gonadal fat mass, WT mice ([1]; estrogen treatment, result in words (FIG. 6), listed as estrogen) | body weight (orx male rats) | food intake (orx male rats) | total serum cholesterol (orx male rats) |
| --- | --- | --- | --- | --- | --- | --- | --- | --- | --- | --- |
| 17β-estradiol benzoate [Estrogen] | 93 | 7 | reduced; also recorded: hyperresponsiveness | not | −2.0 ± 5.2++ % | reduction of gonadal fat mass | reduced | – | – | – |
| Oc1ccc2c(c1)CC[C@H](c1ccccc1)[C@@H]2c1ccc(OCCN2CCCC2)cc1 [lasofoxifene] | – | – | – | – | – | – | – | decreased | decreased | decreased |
